Measurements as given in patent US9732075B2, “Benzimidazole-proline derivatives” (IDORSIA PHARMACEUTICALS LTD, priority 2012, dated 2017).

Columns and labels:
[1] = target: human orexin-1 receptor (Homo sapiens (Human), UniProt O43613); experiment: In vitro assay: intracellular calcium measurements (FLIPR), antagonistic activity; format: cell-based; conditions: CHO cells expressing human orexin-1 receptor, orexin-A agonist, geometric mean, read-out: IC50 Ox1
How it was run: (§1)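 Dye-loaded CHO cells expressing either human orexin receptor are exposed to test antagonist for 120 min, then stimulated with orexin-A at 3 nM.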

[2] = target: human orexin-2 receptor (Homo sapiens (Human), UniProt O43614); experiment: as above; format: cell-based; conditions: CHO cells expressing human orexin-2 receptor, orexin-A agonist, geometric mean, read-out: IC50 Ox2
Chain of human orexin-2 receptor (O43614 whole entry): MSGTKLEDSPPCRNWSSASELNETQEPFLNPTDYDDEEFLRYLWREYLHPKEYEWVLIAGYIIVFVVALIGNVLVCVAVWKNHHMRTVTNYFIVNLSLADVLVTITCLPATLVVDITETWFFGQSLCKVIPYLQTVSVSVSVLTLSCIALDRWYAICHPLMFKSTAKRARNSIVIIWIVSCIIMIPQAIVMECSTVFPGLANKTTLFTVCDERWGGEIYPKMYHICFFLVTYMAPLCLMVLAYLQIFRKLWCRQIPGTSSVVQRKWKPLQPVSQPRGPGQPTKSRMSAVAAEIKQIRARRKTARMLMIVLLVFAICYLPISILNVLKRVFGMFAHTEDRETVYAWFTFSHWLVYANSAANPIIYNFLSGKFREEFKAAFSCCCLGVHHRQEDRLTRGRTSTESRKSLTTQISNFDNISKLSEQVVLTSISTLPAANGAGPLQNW
How it was run: as §1

Chain of human orexin-1 receptor (O43613 whole entry): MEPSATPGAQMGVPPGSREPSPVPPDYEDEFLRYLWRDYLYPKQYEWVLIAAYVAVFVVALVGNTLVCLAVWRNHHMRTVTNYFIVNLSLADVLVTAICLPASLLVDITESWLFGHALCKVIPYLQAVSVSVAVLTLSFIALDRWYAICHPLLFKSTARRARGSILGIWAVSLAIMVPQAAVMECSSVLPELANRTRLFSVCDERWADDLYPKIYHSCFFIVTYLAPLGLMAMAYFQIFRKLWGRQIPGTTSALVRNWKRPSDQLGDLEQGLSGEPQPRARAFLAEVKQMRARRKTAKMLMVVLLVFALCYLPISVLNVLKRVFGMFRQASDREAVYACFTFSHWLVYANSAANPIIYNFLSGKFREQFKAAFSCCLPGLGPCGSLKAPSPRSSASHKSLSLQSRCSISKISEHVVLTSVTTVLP

IC50 [1] [nM] | IC50 [2] [nM] | SMILES
28 | 27 | COc1cc(C(=O)N2C[C@H](OC)CC2(C)c2nc3c(C)c(Cl)ccc3[nH]2)c(-n2nccn2)cc1OC (some centres unmarked) [Ex. 3.52]
10 | 20 | CO[C@H]1CN(C(=O)c2cc(C)ccc2-n2cccn2)C(C)(c2nc3c(C)c(Cl)ccc3[nH]2)C1 (some centres unmarked) [Ex. 3.53]
52 | 44 | CO[C@H]1CN(C(=O)c2ccccc2-n2cccn2)C(C)(c2nc3c(C)c(Cl)ccc3[nH]2)C1 (some centres unmarked) [Ex. 3.54]
18 | 45 | CO[C@H]1CN(C(=O)c2nc(C)ccc2-n2cccn2)C(C)(c2nc3c(C)c(Cl)ccc3[nH]2)C1 (some centres unmarked) [Ex. 3.55]
18 | 37 | CO[C@H]1CN(C(=O)c2nc(C)ccc2-n2nccn2)C(C)(c2nc3c(C)c(Cl)ccc3[nH]2)C1 (some centres unmarked) [Ex. 3.56]
132 | 669 | Cc1ccc(-n2nccn2)c(C(=O)N2CC[C@H](C)[C@H]2c2nc3cc(C)ccc3[nH]2)c1 [Ex. 4.2]
8 | 1350 | Cc1ccc2[nH]c([C@@H]3[C@@H](C)CCN3C(=O)c3nc(C)sc3-c3cccc(Cl)c3)nc2c1 [Ex. 4.3]
11 | 1170 | Cc1nc(C(=O)N2CC[C@H](C)[C@H]2c2nc3cccc(C)c3[nH]2)c(-c2ccccc2)s1 [Ex. 4.4]
29 | 3190 | Cc1ccc2[nH]c([C@@H]3[C@@H](C)CCN3C(=O)c3nc(C)sc3-c3ccccc3)nc2c1 [Ex. 4.5]
29 | 3890 | Cc1nc(C(=O)N2CC[C@H](C)[C@H]2c2nc3ccccc3[nH]2)c(-c2cccc(Cl)c2)s1 [Ex. 4.6]
2 | 603 | Cc1nc(C(=O)N2CC[C@H](C)[C@H]2c2nc3cccc(C)c3[nH]2)c(-c2cccc(Cl)c2)s1 [Ex. 4.7]
68 | 9930 | Cc1nc(C(=O)N2CC[C@H](C)[C@H]2c2nc3cc(C#N)ccc3[nH]2)c(-c2cccc(Cl)c2)s1 [Ex. 4.8]
2 | 2780 | Cc1nc(C(=O)N2CC[C@H](C)[C@H]2c2nc3cc(C(F)(F)F)ccc3[nH]2)c(-c2cccc(Cl)c2)s1 [Ex. 4.9]
2 | 833 | Cc1nc(C(=O)N2CC[C@H](C)[C@H]2c2nc3cc(C)c(C)cc3[nH]2)c(-c2cccc(Cl)c2)s1 [Ex. 4.10]
10 | 4060 | Cc1nc(C(=O)N2CC[C@H](C)[C@H]2c2nc3cc(Cl)ccc3[nH]2)c(-c2cccc(Cl)c2)s1 [Ex. 4.11]
23 | 4870 | Cc1nc(C(=O)N2CC[C@H](C)[C@H]2c2nc3cc(F)c(F)cc3[nH]2)c(-c2cccc(Cl)c2)s1 [Ex. 4.12]
26 | 4910 | COC(=O)c1cccc2nc([C@@H]3[C@@H](C)CCN3C(=O)c3nc(C)sc3-c3cccc(Cl)c3)[nH]c12 [Ex. 4.13]
15 | 4030 | COc1cccc2[nH]c([C@@H]3[C@@H](C)CCN3C(=O)c3nc(C)sc3-c3cccc(Cl)c3)nc12 [Ex. 4.14]
2 | 670 | Cc1nc(C(=O)N2CC[C@H](C)[C@H]2c2nc3cc(Cl)c(C)cc3[nH]2)c(-c2cccc(Cl)c2)s1 [Ex. 4.15]
1 | 250 | Cc1cc(C)c2nc([C@@H]3[C@@H](C)CCN3C(=O)c3nc(C)sc3-c3cccc(Cl)c3)[nH]c2c1 [Ex. 4.16]

IC50 [1] [nM] | IC50 [2] [nM] | SMILES
14 | 1670 | Cc1nc(C(=O)N2CC[C@H](C)[C@H]2c2nc3c(CO)cccc3[nH]2)c(-c2cccc(Cl)c2)s1 [Ex. 4.17]
43 | 2930 | Cc1nc(C(=O)N2CC[C@H](C)[C@H]2c2nc3c(F)cccc3[nH]2)c(-c2cccc(Cl)c2)s1 [Ex. 4.18]
2 | 422 | Cc1nc(C(=O)N2CC[C@H](C)[C@H]2c2nc3c(C(F)(F)F)cccc3[nH]2)c(-c2cccc(Cl)c2)s1 [Ex. 4.19]
28 | 2450 | Cc1nc(C(=O)N2CC[C@H](C)[C@H]2c2nc3cc(F)ccc3[nH]2)c(-c2cccc(Cl)c2)s1 [Ex. 4.20]
1 | 133 | Cc1nc(C(=O)N2CC[C@H](C)[C@H]2c2nc3c(C)c(Cl)ccc3[nH]2)c(-c2cccc(Cl)c2)s1 [Ex. 4.21]
6 | 1080 | Cc1nc(C(=O)N2CC[C@H](C)[C@H]2c2nc3cccc(Cl)c3[nH]2)c(-c2cccc(Cl)c2)s1 [Ex. 4.22]
9 | 1940 | Cc1nc(C(=O)N2CC[C@H](C)[C@H]2c2nc3c(F)c(F)ccc3[nH]2)c(-c2cccc(Cl)c2)s1 [Ex. 4.23]
2 | 367 | Cc1nc(C(=O)N2CC[C@H](C)[C@H]2c2nc3c(C)c(C)ccc3[nH]2)c(-c2cccc(Cl)c2)s1 [Ex. 4.24]
4 | 441 | Cc1nc(C(=O)N2CC[C@H](C)[C@H]2c2nc3c(C(C)C)cccc3[nH]2)c(-c2cccc(Cl)c2)s1 [Ex. 4.25]
17 | 2280 | COc1ccc2nc([C@@H]3[C@@H](C)CCN3C(=O)c3nc(C)sc3-c3cccc(Cl)c3)[nH]c2c1 [Ex. 4.26]
59 | 5590 | Cc1nc(C(=O)N2CC[C@H](C)[C@H]2c2nc3cc(CO)ccc3[nH]2)c(-c2cccc(Cl)c2)s1 [Ex. 4.27]
2 | 486 | Cc1nc(C(=O)N2CC[C@H](C)[C@H]2c2nc3cc(Cl)cc(C)c3[nH]2)c(-c2cccc(Cl)c2)s1 [Ex. 4.28]
30 | 353 | Cc1ccc(-n2nccn2)c(C(=O)N2CC[C@H](C)[C@H]2c2nc3cc(C(F)(F)F)ccc3[nH]2)c1 [Ex. 4.29]
12 | 155 | Cc1ccc(-n2nccn2)c(C(=O)N2CC[C@H](C)[C@H]2c2nc3cc(C)c(C)cc3[nH]2)c1 [Ex. 4.30]
77 | 774 | COc1cccc2[nH]c([C@@H]3[C@@H](C)CCN3C(=O)c3cc(C)ccc3-n3nccn3)nc12 [Ex. 4.31]
7 | 156 | Cc1ccc(-n2nccn2)c(C(=O)N2CC[C@H](C)[C@H]2c2nc3cc(Cl)c(C)cc3[nH]2)c1 [Ex. 4.32]
9 | 294 | Cc1ccc(-n2nccn2)c(C(=O)N2CC[C@H](C)[C@H]2c2nc3c(C)cc(C)cc3[nH]2)c1 [Ex. 4.33]
37 | 1880 | Cc1ccc(-n2nccn2)c(C(=O)N2CC[C@H](C)[C@H]2c2nc3c(C(F)(F)F)cccc3[nH]2)c1 [Ex. 4.34]
3 | 193 | Cc1ccc(-n2nccn2)c(C(=O)N2CC[C@H](C)[C@H]2c2nc3c(C)c(Cl)ccc3[nH]2)c1 [Ex. 4.35]
70 | 2740 | Cc1ccc(-n2nccn2)c(C(=O)N2CC[C@H](C)[C@H]2c2nc3c(Cl)cccc3[nH]2)c1 [Ex. 4.36]

IC50 [1] [nM] | IC50 [2] [nM] | SMILES
24 | 988 | Cc1ccc(-n2nccn2)c(C(=O)N2CC[C@H](C)[C@H]2c2nc3c(C)c(C)ccc3[nH]2)c1 [Ex. 4.37]
55 | 756 | Cc1ccc(-n2nccn2)c(C(=O)N2CC[C@H](C)[C@H]2c2nc3c(C(C)C)cccc3[nH]2)c1 [Ex. 4.38]
14 | 315 | Cc1ccc(-n2nccn2)c(C(=O)N2CC[C@H](C)[C@H]2c2nc3cc(Cl)cc(C)c3[nH]2)c1 [Ex. 4.39]
21 | 28 | COc1cc2nc([C@@H]3[C@@H](C)CCN3C(=O)c3cc(Cl)ccc3-n3nccn3)[nH]c2cc1OC [Ex. 4.40]
182 | 248 | COc1cc2nc([C@@H]3[C@@H](C)CCN3C(=O)c3cc(F)ccc3-n3nccn3)[nH]c2cc1OC [Ex. 4.41]
365 | 1130 | COc1cc2nc([C@@H]3[C@@H](C)CCN3C(=O)c3c(F)cccc3-n3nccn3)[nH]c2cc1OC [Ex. 4.42]
39 | 97 | COc1ccc(-n2nccn2)c(C(=O)N2CC[C@H](C)[C@H]2c2nc3cc(OC)c(OC)cc3[nH]2)c1 [Ex. 4.43]
38 | 246 | COc1cc2nc([C@@H]3[C@@H](C)CCN3C(=O)c3c(-n4nccn4)ccc(C)c3F)[nH]c2cc1OC [Ex. 4.44]
124 | 5780 | COc1cc2nc([C@@H]3[C@@H](C)CCN3C(=O)c3c(-n4nccn4)ccc(OC)c3F)[nH]c2cc1OC [Ex. 4.45]
14 | 51 | COc1cc2nc([C@@H]3[C@@H](C)CCN3C(=O)c3ccc(C)cc3-n3nccn3)[nH]c2cc1OC [Ex. 4.46]
176 | 281 | COc1cc2nc([C@@H]3[C@@H](C)CCN3C(=O)c3cc(C(F)(F)F)ccc3-n3nccn3)[nH]c2cc1OC [Ex. 4.47]
391 | 1320 | COc1cc2nc([C@@H]3[C@@H](C)CCN3C(=O)c3c(C)cccc3-n3nccn3)[nH]c2cc1OC [Ex. 4.48]
221 | 533 | COc1cc2nc([C@@H]3[C@@H](C)CCN3C(=O)c3ccccc3-n3nccn3)[nH]c2cc1OC [Ex. 4.49]
373 | 4220 | COc1cc2nc([C@@H]3[C@@H](C)CCN3C(=O)c3nc(C)sc3-c3ccc(C(F)(F)F)cc3)[nH]c2cc1OC [Ex. 4.50]
99 | 677 | COc1cc2nc([C@@H]3[C@@H](C)CCN3C(=O)c3sc(C)nc3-c3ccc(C)cc3)[nH]c2cc1OC [Ex. 4.51]
19 | 1070 | COc1cc2nc([C@@H]3[C@@H](C)CCN3C(=O)c3nc(C)sc3-c3cc(F)cc(F)c3)[nH]c2cc1OC [Ex. 4.52]
111 | 4440 | COc1ccc(-c2sc(C)nc2C(=O)N2CC[C@H](C)[C@H]2c2nc3cc(OC)c(OC)cc3[nH]2)cn1 [Ex. 4.53]
21 | 2320 | COc1cc2nc([C@@H]3[C@@H](C)CCN3C(=O)c3nc(C)sc3-c3ccc(F)cc3)[nH]c2cc1OC [Ex. 4.54]
